In patent US20080318943A1, “Compounds and Uses Thereof - 848” (ASTRAZENECA AB, priority 2007, published 2008):

Key:
[1] = target: T1, GABAA2 receptors (α2, β3, γ2 receptor subunits transfected into Sf9 cells) (Homo sapiens, UniProt P18507+P47869); assay: GABAA2 Binding Method ([3H]-Flunitrazepam displacement); conditions: [3H]-Flunitrazepam ~2 nM, α2β3γ2 Sf9 membranes, 1 hr at 4° C.
T1 construct: host or cells: Sf9 cells (membranes)
Procedure, shortened: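 Displacement of [3H]-flunitrazepam (~2 nM in assay) from recombinant human α2β3γ2 receptors in Sf9 membranes; 1 h incubation at 4 °C, harvest by filtration. Values reported as percent of control, IC50 and Ki.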

GABAA receptor α2β3γ2 = target: T2, GABAA receptor α2β3γ2 (Homo sapiens, UniProt P18507+P47869); assay: Two-electrode voltage-clamp potentiation of GABA EC10 current in Xenopus oocytes, GABAA2; assay type: cell-based; conditions: percentage potentiation of GABA EC10 current divided by that of diazepam
T2 construct: expressed in transfected cells; host or cells: Xenopus laevis oocytes injected with cRNA
Description: GABAA receptors were heterologously expressed in Xenopus oocytes by injecting cRNA corresponding to human α1, α2, α3, α5, β2, P3 and γ2 subunits of the GABAA receptor genes. The specific subunit combinations (subtypes) were as follows: α1β2γ2, α2β3γ2, α3β3γ2, and α5β3γ2. The EC10 of GABA is approximated for each cell. Stability of GABA-mediated (EC10) current is established. Modulatory effect of test compound is determined and compared across subtypes. […] Thus, the assay can characterize modulatory effects and determine subtype selectivity of test compounds on major subtypes of GABAA receptors.
Xenopus laevis frogs (Xenopus I, Kalamazoo, Mich.) were anesthetized using 0.15% tricaine. Surgically removed ovarian lobes were teased out in OR2 solution (82 NaCl, 2.5 KCl, 5 HEPES, 1.5 NaH2PO4, 1 MgCl2, 0.1 EDTA, in mM, pH 7.4). The oocytes were defolliculated by incubation in 25 mL OR2 containing 0.2% collagenase 1A (SIGMA) two times for about 60 minutes on a platform shaker and stored in Leibovitz's L-15 medium. Oocytes were injected the following day in 0.5× Leibovitz's L-15 medium containing […] gentamycin, 10 units/ml penicillin, and […] streptomycin.
Capped cRNAs from the linearized vectors containing human α1, β2 and γ2 subunits of the GABAA receptor genes were mixed in ratio of […]. Oocytes were injected with 25-50 nL of mixed RNA with an appx molar ratio for α1, β2, and γ2 as 1:1:10. Oocyte recordings were done 2-10 days after injection. The same methods apply to subtypes derived from α2β3γ2, α3β3γ2, and α5β3γ2, except for 1:1:1 ratio was used for α, β, and γ subunits.
All measurements were done in a medium containing ND-96 (96 NaCl, 2 KCl, 1.8 CaCl2.2H2O, 1 MgCl2.6H2O, 5 HEPES, in mM, pH 7.5). Two-electrode voltage-clamp recording was carried out using OpusXpress amplifier (Axon Instruments, Foster City, Calif.), which allows simultaneous recording from 8 oocytes. Oocytes were impaled with two electrodes of 1-2 MΩ tip resistance when filled with 3M KCl. Recordings were begun when membrane potential became stable at potentials negative to −50-−60 mV. Membrane potential was held at −60 mV. […] The concentration of GABA corresponded to the EC10 value calculated for each oocyte. The modulator pulses started 30 s before the GABA pulse so as to allow preincubation with the modulator. A set of 3 pulses with just GABA without modulator was given prior to the modulator-containing pulses to define the baseline GABA response. Two oocytes per each experiment were dedicated to observe the effect of diazepam on GABA response to ensure the presence of γ2 subunit in the GABAA pentameric complex, which imparts diazepam sensitivity to the complex.
Current amplitude (i) was measured from baseline to peak using Clampfit (Axon Inst., Foster City, Calif.). Potentiation was calculated as percent change from the baseline GABA current flux 100×(imod/icontrol)−1) where imod=current mediated by modulator+GABA and icontrol=current mediated by GABA alone. […] Similarly, a value of −50% potentiation means the presence of modulator caused a 50% decrease in the control current. Various other data shown here were fitted and plotted using GraphPad Prism (GraphPad Software, Inc. San Diego, Calif.). The percentage potentiation was converted to relative potentiation by dividing it with percentage potentiation value obtained from the same assay with diazepam as a control.

GABAA receptor α1β2γ2 = target: T3, GABAA receptor α1β2γ2 (Homo sapiens, UniProt P14867+P18507); assay: Two-electrode voltage-clamp potentiation of GABA EC10 current in Xenopus oocytes, GABAA1; assay type: cell-based; conditions: percentage potentiation of GABA EC10 current divided by that of diazepam
T3 construct: expressed in transfected cells; host or cells: Xenopus laevis oocytes injected with cRNA
Procedure, shortened: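 Human GABAA receptors expressed in Xenopus oocytes by cRNA injection (α:β:γ molar ratio ~1:1:10 for α1β2γ2, 1:1:1 for α2β3γ2), recorded 2-10 days later by two-electrode voltage clamp at −60 mV in ND-96, pH 7.5. Modulator preapplied 30 s before GABA at per-oocyte EC10. Peak-current percent potentiation over GABA alone, normalised to diazepam.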

T3 sequence (P14867 28-456): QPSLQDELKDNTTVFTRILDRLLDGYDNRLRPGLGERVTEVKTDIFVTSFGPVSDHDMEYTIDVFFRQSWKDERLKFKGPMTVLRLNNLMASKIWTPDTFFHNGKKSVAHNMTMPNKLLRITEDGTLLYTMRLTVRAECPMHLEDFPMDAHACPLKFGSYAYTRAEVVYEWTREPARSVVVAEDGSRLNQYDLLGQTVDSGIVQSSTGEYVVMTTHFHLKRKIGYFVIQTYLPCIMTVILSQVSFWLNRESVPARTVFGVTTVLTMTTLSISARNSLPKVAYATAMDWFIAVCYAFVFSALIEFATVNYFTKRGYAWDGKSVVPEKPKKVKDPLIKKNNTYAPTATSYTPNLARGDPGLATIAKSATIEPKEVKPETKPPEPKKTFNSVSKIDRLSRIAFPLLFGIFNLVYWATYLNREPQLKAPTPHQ
T3 sequence (P47870 25-512 partner limits assumed): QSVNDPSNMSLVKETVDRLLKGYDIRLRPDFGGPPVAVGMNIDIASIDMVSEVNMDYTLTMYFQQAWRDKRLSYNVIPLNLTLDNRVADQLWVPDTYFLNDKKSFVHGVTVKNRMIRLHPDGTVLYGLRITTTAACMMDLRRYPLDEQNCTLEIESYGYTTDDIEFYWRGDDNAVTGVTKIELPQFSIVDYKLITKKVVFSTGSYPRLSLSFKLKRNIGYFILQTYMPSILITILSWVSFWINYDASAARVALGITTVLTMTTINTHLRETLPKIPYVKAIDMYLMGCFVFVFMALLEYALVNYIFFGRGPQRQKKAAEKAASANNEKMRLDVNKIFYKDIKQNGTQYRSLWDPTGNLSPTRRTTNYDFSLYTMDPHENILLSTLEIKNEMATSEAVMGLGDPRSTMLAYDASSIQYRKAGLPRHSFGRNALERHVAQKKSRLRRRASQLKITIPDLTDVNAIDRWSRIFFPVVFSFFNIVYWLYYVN
T3 sequence (P18507 40-475): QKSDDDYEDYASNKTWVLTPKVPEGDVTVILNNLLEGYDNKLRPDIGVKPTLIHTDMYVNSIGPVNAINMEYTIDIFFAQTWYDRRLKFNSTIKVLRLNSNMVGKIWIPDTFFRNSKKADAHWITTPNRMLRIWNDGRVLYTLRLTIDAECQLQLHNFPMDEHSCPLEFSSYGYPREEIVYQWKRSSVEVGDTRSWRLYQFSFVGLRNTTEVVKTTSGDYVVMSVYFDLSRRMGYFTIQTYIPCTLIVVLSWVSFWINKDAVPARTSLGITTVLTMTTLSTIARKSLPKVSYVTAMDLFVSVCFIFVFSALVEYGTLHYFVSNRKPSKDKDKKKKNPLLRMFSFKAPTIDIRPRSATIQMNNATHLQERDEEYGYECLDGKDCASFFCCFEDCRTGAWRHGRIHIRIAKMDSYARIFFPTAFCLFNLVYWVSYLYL
T2 sequence (P47869 29-451): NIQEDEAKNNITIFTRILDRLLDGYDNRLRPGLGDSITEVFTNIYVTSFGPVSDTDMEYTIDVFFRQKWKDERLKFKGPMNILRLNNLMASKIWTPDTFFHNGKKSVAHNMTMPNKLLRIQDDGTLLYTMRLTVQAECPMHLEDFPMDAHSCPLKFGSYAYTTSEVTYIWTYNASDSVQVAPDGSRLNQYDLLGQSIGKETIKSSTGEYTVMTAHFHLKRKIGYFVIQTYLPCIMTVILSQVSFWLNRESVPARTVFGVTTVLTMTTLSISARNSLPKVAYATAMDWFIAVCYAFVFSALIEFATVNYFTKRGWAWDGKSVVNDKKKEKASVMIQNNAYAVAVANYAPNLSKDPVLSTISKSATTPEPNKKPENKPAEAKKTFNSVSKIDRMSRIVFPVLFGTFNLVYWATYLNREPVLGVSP
T2 sequence (P28472 26-473 partner): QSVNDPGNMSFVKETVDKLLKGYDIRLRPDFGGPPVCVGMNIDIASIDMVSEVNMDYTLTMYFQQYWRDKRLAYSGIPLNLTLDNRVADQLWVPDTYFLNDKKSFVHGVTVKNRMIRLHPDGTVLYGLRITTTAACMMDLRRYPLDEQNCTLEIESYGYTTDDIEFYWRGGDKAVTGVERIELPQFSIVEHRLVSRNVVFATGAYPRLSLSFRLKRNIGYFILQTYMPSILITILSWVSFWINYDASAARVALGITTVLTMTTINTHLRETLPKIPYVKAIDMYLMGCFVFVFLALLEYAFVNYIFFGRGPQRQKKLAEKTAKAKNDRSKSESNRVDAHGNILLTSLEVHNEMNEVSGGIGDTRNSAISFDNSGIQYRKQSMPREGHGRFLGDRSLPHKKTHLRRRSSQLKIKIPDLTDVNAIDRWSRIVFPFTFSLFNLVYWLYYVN
T2 sequence (P18507 40-475): as the sequence (P18507 40-475) above
T1 sequence (P47869 29-451): as the sequence (P47869 29-451) above
T1 sequence (P28472 26-473 partner): as the sequence (P28472 26-473 partner) above
T1 sequence (P18507 40-475): as the sequence (P18507 40-475) above

| Compound | Ki [1] | Relative Potentiation for GABAA2 (GABAA receptor α2β3γ2) | Relative Potentiation for GABAA1 (GABAA receptor α1β2γ2) |
| --- | --- | --- | --- |
| Nc1c2c(nc3c(-c4ccc(F)nc4F)cccc13)CN(C1CCC1)C2=O [9-Amino-2-cyclobutyl-5-(2,6-difluoropyridin-3-yl)-2,3-dihydropyrrolo[3,4-b]quinolin-1-one] | 0.732 nM | 0.21 | 0.033 |
| COc1cccc(-c2cccc3c(N)c4c(nc23)CN(C2CCC2)C4=O)c1F [9-Amino-2-cyclobutyl-5-(2-fluoro-3-methoxyphenyl)-2,3-dihydropyrrolo[3,4-b]quinolin-1-one] | 4.19 nM | 0.26 | 0.062 |
| COc1ccc(F)c(-c2cccc3c(N)c4c(nc23)CN(C2CCC2)C4=O)c1 [9-Amino-2-cyclobutyl-5-(2-fluoro-5-methoxyphenyl)-2,3-dihydropyrrolo[3,4-b]quinolin-1-one] | 1.34 nM | 0.29 | 0.1 |
| Cc1ccc(-c2cccc3c(N)c4c(nc23)CN(C2CCC2)C4=O)c(F)n1 [9-Amino-2-cyclobutyl-5-(2-fluoro-6-methylpyridin-3-yl)-2,3-dihydropyrrolo[3,4-b]quinolin-1-one] | 4.26 nM | 0.3 | −0.017 |
| Nc1c2c(nc3c(-c4cccnc4F)cccc13)CN(C1CCC1)C2=O [9-Amino-2-cyclobutyl-5-(2-fluoropyridin-3-yl)-2,3-dihydropyrrolo[3,4-b]quinolin-1-one] | 2.56 nM | 0.24 | −0.002 |
| COc1ccc(-c2c(F)ccc3c(N)c4c(nc23)CN(C2CCC2)C4=O)cc1OC [9-Amino-2-cyclobutyl-5-(3,4-dimethoxyphenyl)-6-fluoro-2,3-dihydropyrrolo[3,4-b]quinolin-1-one] | 1 nM | 0.41 | 0.083 |
| Nc1c2c(nc3c(-c4nccnc4F)cccc13)CN(C1CCC1)C2=O [9-Amino-2-cyclobutyl-5-(3-fluoropyrazin-2-yl)-2,3-dihydropyrrolo[3,4-b]quinolin-1-one] | 2.17 nM | 0.14 | −0.03 |
| Nc1c2c(nc3c(-c4ncccc4F)cccc13)CN(C1CCC1)C2=O [9-Amino-2-cyclobutyl-5-(3-fluoropyridin-2-yl)-2,3-dihydropyrrolo[3,4-b]quinolin-1-one] | 4.69 nM | 0.19 | 0.017 |
| COc1nnccc1-c1cccc2c(N)c3c(nc12)CN(C1CCC1)C3=O [9-Amino-2-cyclobutyl-5-(3-methoxypyridazin-4-yl)-2,3-dihydropyrrolo[3,4-b]quinolin-1-one] | 4.73 nM | 0.43 | 0.082 |
| COc1cnccc1-c1cccc2c(N)c3c(nc12)CN(C1CCC1)C3=O [9-Amino-2-cyclobutyl-5-(3-methoxypyridin-4-yl)-2,3-dihydropyrrolo[3,4-b]quinolin-1-one] | 0.64 nM | 0.32 | 0.1 |
| COc1cc(F)ccc1-c1cccc2c(N)c3c(nc12)CN(C1CCC1)C3=O [9-Amino-2-cyclobutyl-5-(4-fluoro-2-methoxyphenyl)-2,3-dihydropyrrolo[3,4-b]quinolin-1-one] | 8.36 nM | 0.26 | 0.035 |
| COc1ncncc1-c1cccc2c(N)c3c(nc12)CN(C1CCC1)C3=O [9-Amino-2-cyclobutyl-5-(4-methoxy-pyrimidin-5-yl)-2,3-dihydropyrrolo[3,4-b]quinolin-1-one] | 0.631 nM | 0.52 | 0.083 |
| Cc1ccncc1-c1cccc2c(N)c3c(nc12)CN(C1CCC1)C3=O [9-Amino-2-cyclobutyl-5-(4-methylpyridin-3-yl)-2,3-dihydropyrrolo[3,4-b]quinolin-1-one] | 1.1 nM | 0.13 | 0.017 |
| COc1ccc(F)cc1-c1cccc2c(N)c3c(nc12)CN(C1CCC1)C3=O [9-Amino-2-cyclobutyl-5-(5-fluoro-2-methoxyphenyl)-2,3-dihydropyrrolo[3,4-b]quinolin-1-one] | 8.9 nM | 0.36 | 0.066 |
| COc1cc(-c2cccc3c(N)c4c(nc23)CN(C2CCC2)C4=O)c(F)cn1 [9-Amino-2-cyclobutyl-5-(5-fluoro-2-methoxypyridin-4-yl)-2,3-dihydropyrrolo[3,4-b]quinolin-1-one] | 6.7 nM | 0.33 | 0.065 |
| COc1cncc(-c2cccc3c(N)c4c(nc23)CN(C2CCC2)C4=O)c1 [9-Amino-2-cyclobutyl-5-(5-methoxy-pyridin-3-yl)-2,3-dihydropyrrolo[3,4-b]quinolin-1-one] | 1.86 nM | 0.26 | 0.038 |
| Cc1ccc(-c2cccc3c(N)c4c(nc23)CN(C2CCC2)C4=O)nc1 [9-Amino-2-cyclobutyl-5-(5-methylpyridin-2-yl)-2,3-dihydropyrrolo[3,4-b]quinolin-1-one] | 12.7 nM | 0.13 | 0.088 |
| Cc1nc(F)ccc1-c1cccc2c(N)c3c(nc12)CN(C1CCC1)C3=O [9-Amino-2-cyclobutyl-5-(6-fluoro-2-methylpyridin-3-yl)-2,3-dihydropyrrolo[3,4-b]quinolin-1-one] | 2.39 nM | 0.31 | 0.13 |
| Cc1cc(-c2cccc3c(N)c4c(nc23)CN(C2CCC2)C4=O)cnc1F [9-Amino-2-cyclobutyl-5-(6-fluoro-5-methylpyridin-3-yl)-2,3-dihydropyrrolo[3,4-b]quinolin-1-one] | 8.54 nM | 0.2 | 0.018 |
| COc1ccc(-c2cccc3c(N)c4c(nc23)CN(C2CCC2)C4=O)c(C)n1 [9-Amino-2-cyclobutyl-5-(6-methoxy-2-methylpyridin-3-yl)-2,3-dihydropyrrolo[3,4-b]quinolin-1-one] | 5.03 nM | 0.2 | −0.0033 |
